Read-outs that look alike come from different tables or passages of the source.
Experiments:
Assay type in all cases: cell-based
K-562 = test: NCI 60 antitumor screening (single dose / five doses); conditions: Homo sapiens
SR = test: as above; conditions: Homo sapiens, read-out: Growth inhibition percentage (GI %)
EKVX = test: as above; conditions: Homo sapiens, read-out: Growth inhibition percentage (GI %)
HCC-2998 = test: NCI 60 antitumor screening (single dose); conditions: Homo sapiens; HCC-2998 (colon cancer), single dose 10 μM; read-out: Growth inhibition percentage (GI %)
Summary of the method: (§1)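 NCI-60 one-dose screen. Dose: 10 μM. Lines: 60 human tumour lines, nine tissue types. Output: GI% = 100 − G%.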

HOP-62 = test: NCI 60 antitumor screening (single dose); conditions: Homo sapiens; HOP-62 (non-small cell lung cancer), single dose 10 μM; read-out: Growth inhibition percentage (GI %)
Summary of the method: as §1

HS 578T = test: NCI 60 antitumor screening (single dose); conditions: Homo sapiens; HS 578T (breast cancer), single dose 10 μM; read-out: Growth inhibition percentage (GI %)
Summary of the method: (§2)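 Test compound added at 10 μM to each of 60 human cancer lines from nine tumour types; growth measured per NCI protocol in triplicate; percent growth converted to inhibition (100 − G%).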

KM 12 = test: NCI 60 antitumor screening (single dose); conditions: Homo sapiens, KM12; KM 12 (colon cancer), single dose 10 μM; read-out: Growth inhibition percentage (GI %)
Summary of the method: as §2

NCI-H226 = test: NCI 60 antitumor screening (single dose); conditions: Homo sapiens; NCI-H226 (non-small cell lung cancer), single dose 10 μM; read-out: Growth inhibition percentage (GI %)
Summary of the method: as §2

NCI-H460 = test: NCI 60 antitumor screening (single dose); conditions: Homo sapiens; NCI-H460 (non-small cell lung cancer), single dose 10 μM; read-out: Growth inhibition percentage (GI %)
Summary of the method: as §1

OVCAR-3 = test: NCI 60 antitumor screening (single dose); conditions: Homo sapiens; OVCAR-3 (ovarian cancer), single dose 10 μM; read-out: Growth inhibition percentage (GI %)
Summary of the method: as §2

OVCAR-4 = test: NCI 60 antitumor screening (single dose); conditions: Homo sapiens; OVCAR-4 (ovarian cancer), single dose 10 μM; read-out: Growth inhibition percentage (GI %)
Summary of the method: as §2

OVCAR-5 = test: NCI 60 antitumor screening (single dose); conditions: Homo sapiens; OVCAR-5 (ovarian cancer), single dose 10 μM; read-out: Growth inhibition percentage (GI %)
Summary of the method: as §1

OVCAR-8 = test: NCI 60 antitumor screening (single dose); conditions: Homo sapiens; OVCAR-8 (ovarian cancer), single dose 10 μM; read-out: Growth inhibition percentage (GI %)
Summary of the method: as §2

PC-3 = test: NCI 60 antitumor screening (single dose); conditions: Homo sapiens; PC-3 (prostate cancer), single dose 10 μM; read-out: Growth inhibition percentage (GI %)
Summary of the method: as §2

SK-OV-3 = test: NCI 60 antitumor screening (single dose); conditions: Homo sapiens; SK-OV-3 (ovarian cancer), single dose 10 μM; read-out: Growth inhibition percentage (GI %)
Summary of the method: as §1

SNB-19 = test: NCI 60 antitumor screening (single dose); conditions: Homo sapiens; SNB-19 (CNS cancer), single dose 10 μM; read-out: Growth inhibition percentage (GI %)
Summary of the method: as §2

TK-10 = test: NCI 60 antitumor screening (single dose); conditions: Homo sapiens; TK-10 (renal cancer), single dose 10 μM; read-out: Growth inhibition percentage (GI %)
Summary of the method: as §2

U251 = test: NCI 60 antitumor screening (single dose); conditions: Homo sapiens, U-251; U251 (CNS cancer), single dose 10 μM; read-out: Growth inhibition percentage (GI %)
Summary of the method: as §1

COLO 205 = test: NCI 60 antitumor screening (single dose / five doses); conditions: Homo sapiens
HCT-116 = test: as above; conditions: Homo sapiens
SF-295 = test: as above; conditions: Homo sapiens
LOX IMVI = test: as above; conditions: Homo sapiens, read-out: Growth inhibition percentage (GI %)
SK-MEL-2 = test: as above; conditions: Homo sapiens
UACC-257 = test: as above; conditions: Homo sapiens
IGROV1 = test: as above; conditions: Homo sapiens
ACHN = test: as above; conditions: Homo sapiens, read-out: Growth inhibition percentage (GI %)
SN 12C = test: as above; conditions: Homo sapiens, SN12C, read-out: Growth inhibition percentage (GI %)
T-47D = test: as above; conditions: Homo sapiens, T47D, read-out: Growth inhibition percentage (GI %)

Structure (SMILES): O=[N+]([O-])c1cc(/C=N/Nc2nc(N/N=C/c3ccc(Cl)c([N+](=O)[O-])c3)nc(N3CCCCC3)n2)ccc1Cl [compound 7i, 2,4-Bis[(E)-2-[(4-Chloro-3-nitrophenyl)methylidene]hydrazin-1-yl]-6-(piperidin-1-yl)-1,3,5-triazine]
- inhibition at 10 µM (K-562; K562, read-out: Growth inhibition percentage (GI %)): 68.3%
- inhibition at 10 µM (SR; SR): 36.8%
- inhibition at 10 µM (EKVX; EKVX): 22%
- inhibition at 10 µM (HCC-2998): 32.6%
- inhibition at 10 µM (HOP-62): 56.3%
- inhibition at 10 µM (HS 578T): 46.2%
- inhibition at 10 µM (KM 12): 94.5%
- inhibition at 10 µM (NCI-H226): 38.6%
- inhibition at 10 µM (NCI-H460): 1.33%
- inhibition at 10 µM (OVCAR-3): 107%
- inhibition at 10 µM (OVCAR-4): 13.1%
- inhibition at 10 µM (OVCAR-5): -8.09%
- inhibition at 10 µM (OVCAR-8): 69%
- inhibition at 10 µM (PC-3): 46.6%
- inhibition at 10 µM (SK-OV-3): 1.24%
- inhibition at 10 µM (SNB-19): 27.4%
- inhibition at 10 µM (TK-10): 6.2%
- inhibition at 10 µM (U251): 81.5%
- inhibition at 10 µM (COLO 205; COLO 205, read-out: Growth inhibition percentage (GI %)): -0.27%
- inhibition at 10 µM (HCT-116; HCT-116, read-out: Growth inhibition percentage (GI %)): 78%
- inhibition at 10 µM (SF-295; SF-295, read-out: Growth inhibition percentage (GI %)): 6.78%
- inhibition at 10 µM (LOX IMVI; LOX IMVI): 34%
- inhibition at 10 µM (SK-MEL-2; SK-MEL-2, read-out: Growth inhibition percentage (GI %)): 37.8%
- inhibition at 10 µM (UACC-257; UACC-257, read-out: Growth inhibition percentage (GI %)): 56.9%
- inhibition at 10 µM (IGROV1; IGROV-1, read-out: Growth inhibition percentage (GI %)): 47.2%
- inhibition at 10 µM (ACHN; ACHN): 64.8%
- inhibition at 10 µM (SN 12C): 27.7%
- inhibition at 10 µM (T-47D): 51.8%

Structure (SMILES): Oc1ccc(/C=N/Nc2nc(N/N=C/c3ccc(O)c(O)c3)nc(N3CCCCC3)n2)cc1O [compound 7j, 4-[(1e)-(2-{4-[(E)-2-[(3,4-Dihydroxyphenyl)methylidene]hydrazin-1-yl]-6-(piperidin-1-yl)-1,3,5-triazin-2-yl}hydrazin-1-ylidene)methyl]benzene-1,2-diol]
- inhibition at 10 µM (K-562; K562, K-562 (leukaemia), single dose 10 μM, read-out: Growth inhibition percentage (GI %)): 6.41%
- inhibition at 10 µM (SR; SR (leukaemia), single dose 10 μM): 25.9%
- inhibition at 10 µM (EKVX; EKVX (non-small cell lung cancer), single dose 10 μM): 1.58%
- inhibition at 10 µM (HCC-2998): -5%
- inhibition at 10 µM (HOP-62): -10.5%
- inhibition at 10 µM (HS 578T): -6.08%
- inhibition at 10 µM (KM 12): -0.29%
- inhibition at 10 µM (NCI-H226): 4.47%
- inhibition at 10 µM (NCI-H460): 0.77%
- inhibition at 10 µM (OVCAR-3): 5.01%
- inhibition at 10 µM (OVCAR-4): -0.74%
- inhibition at 10 µM (OVCAR-5): -13.1%
- inhibition at 10 µM (OVCAR-8): 1.94%
- inhibition at 10 µM (PC-3): 9.42%
- inhibition at 10 µM (SK-OV-3): -24.8%
- inhibition at 10 µM (SNB-19): 13.7%
- inhibition at 10 µM (TK-10): -3.52%
- inhibition at 10 µM (U251): 9.07%
- inhibition at 10 µM (COLO 205; COLO 205 (colon cancer), single dose 10 μM, read-out: Growth inhibition percentage (GI %)): -6.39%
- inhibition at 10 µM (HCT-116; HCT-116 (colon cancer), single dose 10 μM, read-out: Growth inhibition percentage (GI %)): 23.7%
- inhibition at 10 µM (SF-295; SF-295 (CNS cancer), single dose 10 μM, read-out: Growth inhibition percentage (GI %)): 0.36%
- inhibition at 10 µM (LOX IMVI; LOX IMVI (melanoma), single dose 10 μM): 6.65%
- inhibition at 10 µM (SK-MEL-2; SK-MEL-2 (melanoma), single dose 10 μM, read-out: Growth inhibition percentage (GI %)): 9.62%
- inhibition at 10 µM (UACC-257; UACC-257 (melanoma), single dose 10 μM, read-out: Growth inhibition percentage (GI %)): -8.89%
- inhibition at 10 µM (IGROV1; IGROV-1, IGROV1 (ovarian cancer), single dose 10 μM, read-out: Growth inhibition percentage (GI %)): 5.35%
- inhibition at 10 µM (ACHN; ACHN (renal cancer), single dose 10 μM): 6.6%
- inhibition at 10 µM (SN 12C; SN 12C (renal cancer), single dose 10 μM): 4.32%
- inhibition at 10 µM (T-47D; T-47D (breast cancer), single dose 10 μM): 16.9%
